Measurements as given in patent publication US5110976A, “Insecticidal composition comprising more than one active ingredient” (priority 1985, dated 1992).

Experiments:
T. confusum [1] = experiment: Contact method, synergism between stereoisomers (Table 2); format: in vivo; details: Tribolium confusum, 24 h
Experimental: The stereoisomers are dissolved in a 1:2 mixture of mineral oil and acetone and filter paper discs (Whatman No. 1., diameter 9 cm) are impregnated with the corresponding dosage of the solution of the active ingredient. The acetone is allowed to evaporate and the insects are examined on filter paper discs placed into Petri-dishes. Three parallels are used for each dose and 15 animals are placed in each Petri-dish. Mortality rate is determined after 24 hours. The corrected mortality % data are calculated by means of the Abbot formula.
The test is carried out on T. confusum and the following results are obtained by the contact method for various active ingredient doses.
The test is carried out according to the method described in Example 20.

T. confusum [2] = experiment: Topical LD50 (Table 3); format: in vivo, 1-2 weeks' old imagos; details: topical, abdominal side
Experimental: (§1) In Table 3 the LD50 values of the Ig and Ii isomers and those of the Ib isomer-pair are disclosed. The data are topically measured.
(§2) The active ingredients are dissolved in 2-ethoxyethanol (cellosolve) and 0.3 μl droplets of the solutions are applied onto the dorsal cuticulum of 3-5 days' old female house flies. 10 animals are used and 2 parallels are carried out for each dose. The tests are carried out for 5 dose levels between activity limits of 0% and 100%. After treatment the flies are placed into glass vials. Mortality is determined after 24 hours. Data are transformed to log10 dosage and probit mortality. LD50 and confidence interval values are calculated by linear regression analysis of the log-probit data. The expected values required for the calculation of synergism are obtained by means of harmonic average. The synergistic factor is the quotient of the expected and measured values.
The active ingredients are dissolved in 2-ethoxyethanol and 0.3 μl droplets of the solutions are applied onto the abdominal side of 1-2 weeks' old imagos. Treatment is carried out with 2 parallels and 20 animals for each dose by using 5 dose levels in the range between activity limits of 0% and 100%. Evaluation and determination of LD50 values and synergistic factors are carried out as described in Example 21.

Musca domestica [3] = experiment: Topical LD50 (Table 3); format: in vivo, house fly (Musca domestica), 3-5 days' old females; details: topical, dorsal cuticulum; 24 hours
Experimental: as §1, §2

Musca domestica [4] = experiment: Filter paper disc contact test (Table 11); format: in vivo, house fly (Musca domestica); details: Musca domestica, 24 h
Experimental: In Table 1 the activity of various stereoisomers of cypermethrin on the house fly (Musca domestica) is shown.
(§3) The active ingredient is dissolved in a 1:2 mixture of oil and acetone; filter paper discs (Whatman No. 1, diameter 9 cm) are impregnated with the solutions of the corresponding stereoisomers and enantiomer-pairs, respectively. The acetone is allowed to evaporate, whereupon the insects are exposed to filter papers discs placed in Petri-dishes. Three parallels are used on each dose and 15 insects are placed into each Petri-dish. The percental mortality is determined after 24 hours. The corrected percent mortality is calculated by means of the Abbot Formula.

Tribolium confusum = experiment: Contact test on Tribolium confusum (Table 12); format: in vivo; details: Tribolium confusum, 24 h
Experimental: as §3
It appears from Table 12 that the increased activity shown in Example 41 is due to the synergistic effect of the trans-isomers to Tribolium confusum.

T. confusum [5] = experiment: Activity as function of time, toxic symptoms (Table 16); format: in vivo, flour beetle (T. confusum), imagos
Experimental: as §3
Activity of cypermethrin stereoisomer-pairs as function of time on flour beetle (T. Confusum).
Flour beetle (T. confusum) imagos are exposed in Petri-dishes according to the method described in Example 43. For each dose 3 parallels are used and 15 animals are applied for each parallel test. In each point of time the insects lying on their backs are counted and the percental results are expressed in Table 16.

Musca domestica [6] = details: bioresmetrine = 100; cited from earlier work
Phaedon cochleariae = details: bioresmetrine = 100; cited from earlier work

In the case of `CC1(C)[C@H](C=C(Cl)Cl)[C@H]1C(=O)O[C@H](C#N)c1cccc(Oc2ccccc2)c1` [Ig], the mortality at 110 µg/disc (T. confusum [1]; 0.11 mg/disc) is reported as 80%, the mortality at 330 µg/disc (T. confusum [1]; 0.33 mg/disc) is reported as 94% and the mortality at 1000 µg/disc (T. confusum [1]; 1.00 mg/disc) is reported as 100%. The mortality at 3000 µg/disc (T. confusum [1]; 3.00 mg/disc) was 100%, the LD50 measured (T. confusum [2]) was 73.6 ng/insect and the LD50 measured (Musca domestica [3]) was 13.4 ng/insect. It also gave a mortality at 40 µg/disc (Musca domestica [4]; 0.04 mg/disc) of 48%, a mortality at 110 µg/disc (Musca domestica [4]; 0.11 mg/disc) of 68% and a mortality at 330 µg/disc (Musca domestica [4]; 0.33 mg/disc) of 83%. It also gave a mortality at 1000 µg/disc (Musca domestica [4]; 1.00 mg/disc) of 100%, a mortality at 3000 µg/disc (Musca domestica [4]; 3.00 mg/disc) of 100% and a mortality at 110 µg/disc (Tribolium confusum; 0.11 mg/disc) of 70%. For the same molecule, the mortality at 330 µg/disc (Tribolium confusum; 0.33 mg/disc) was 92%, the mortality at 1000 µg/disc (Tribolium confusum; 1.00 mg/disc) was 100% and the mortality at 3000 µg/disc (Tribolium confusum; 3.00 mg/disc) was 100%. For the same molecule, the “% of insects showing toxic symptoms” value (T. confusum [5]; 30 minutes) was 0%, the “% of insects showing toxic symptoms” value (T. confusum [5]; 30 minutes, 0.33 mg/disc) was 0% and the “% of insects showing toxic symptoms” value (T. confusum [5]; 30 minutes, 1.00 mg/disc) was 15%. The “% of insects showing toxic symptoms” value (T. confusum [5]; 30 minutes, 3.00 mg/disc) was 68%, the “% of insects showing toxic symptoms” value (T. confusum [5]; 60 minutes) was 18% and the “% of insects showing toxic symptoms” value (T. confusum [5]; 60 minutes, 0.33 mg/disc) was 34%. The “% of insects showing toxic symptoms” value (T. confusum [5]; 60 minutes, 1.00 mg/disc) was 98%, the “% of insects showing toxic symptoms” value (T. confusum [5]; 60 minutes, 3.00 mg/disc) was 100% and the “% of insects showing toxic symptoms” value (T. confusum [5]; 120 minutes) was 30%. The “% of insects showing toxic symptoms” value (T. confusum [5]; 120 minutes, 0.33 mg/disc) was 70%, the “% of insects showing toxic symptoms” value (T. confusum [5]; 120 minutes, 1.00 mg/disc) was 100% and the “% of insects showing toxic symptoms” value (T. confusum [5]; 120 minutes, 3.00 mg/disc) was 100%. The “% of insects showing toxic symptoms” value (T. confusum [5]; 180 minutes) was 34%, the “% of insects showing toxic symptoms” value (T. confusum [5]; 180 minutes, 0.33 mg/disc) was 84% and the “% of insects showing toxic symptoms” value (T. confusum [5]; 180 minutes, 1.00 mg/disc) was 100%. For the same molecule, the “% of insects showing toxic symptoms” value (T. confusum [5]; 180 minutes, 3.00 mg/disc) was 100%, the “activity related to bioresmetrine (100)” value (Musca domestica [6]) was 1400 and the “activity related to bioresmetrine (100)” value (Phaedon cochleariae) was 2200.

In the case of `CC1(C)[C@H](C=C(Cl)Cl)[C@H]1C(=O)O[C@@H](C#N)c1cccc(Oc2ccccc2)c1` [1RtransR], the “activity related to bioresmetrine (100)” value (Musca domestica [6]) is listed as 81 and the “activity related to bioresmetrine (100)” value (Phaedon cochleariae) is listed as 110.
